Assay results taken from patent US6984649B1, “Pyridine derivatives” (Bayer Aktiengesellschaft, priority 2000, dated 2006).
Counter-ions that a name gives are not always drawn.

The compounds below were run against T1, human IKK-β (Homo sapiens, UniProt O14920) (assay: IKK-β kinase inhibitory assay). Conditions: compounds as yielded by solid phase synthesis, purity about 40 to 90%, read-out: In vitro activity grade (In vitro IC50).
T1 construct: A cDNA fragment encoding human IKK-β open reading frame was generated by PCR; His tag (from pcDNA3.1/His C); made in house; host or cells: Sf21 insect cells (baculovirus); substrate made in E. coli
T1 sequence (O14920 1-756): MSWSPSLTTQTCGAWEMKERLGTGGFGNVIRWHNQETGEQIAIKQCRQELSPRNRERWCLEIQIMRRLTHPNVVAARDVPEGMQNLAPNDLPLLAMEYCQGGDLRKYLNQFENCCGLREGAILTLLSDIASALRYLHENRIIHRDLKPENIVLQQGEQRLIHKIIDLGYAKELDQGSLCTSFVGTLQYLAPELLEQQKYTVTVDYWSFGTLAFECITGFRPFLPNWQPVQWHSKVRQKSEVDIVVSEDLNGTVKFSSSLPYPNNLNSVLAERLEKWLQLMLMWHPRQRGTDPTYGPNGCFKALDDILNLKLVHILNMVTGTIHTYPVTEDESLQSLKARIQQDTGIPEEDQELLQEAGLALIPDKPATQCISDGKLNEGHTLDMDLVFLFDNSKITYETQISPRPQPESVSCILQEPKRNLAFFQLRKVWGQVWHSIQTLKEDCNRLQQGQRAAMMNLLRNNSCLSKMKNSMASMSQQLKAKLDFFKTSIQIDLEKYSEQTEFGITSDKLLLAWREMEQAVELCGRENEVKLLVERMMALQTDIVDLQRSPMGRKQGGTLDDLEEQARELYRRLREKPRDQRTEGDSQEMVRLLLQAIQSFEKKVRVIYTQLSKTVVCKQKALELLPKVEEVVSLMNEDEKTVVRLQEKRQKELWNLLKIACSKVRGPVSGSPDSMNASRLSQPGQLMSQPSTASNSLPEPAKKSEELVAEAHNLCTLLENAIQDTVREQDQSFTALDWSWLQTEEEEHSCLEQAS
Format: biochemical
Procedure, shortened: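 His-tagged human IKK-β from baculovirus-infected Sf21 cells (0.6 μg/ml final) phosphorylates biotinylated GST-IκBα(1-54) (0.2 μM) in Tris-HCl pH 7.6 buffer with MgCl2. ATP with [γ-33P]ATP added, then 2 h at room temperature. Biotinylated substrate captured on streptavidin plates; bound radioactivity counted by scintillation.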

| IC50 [µM] | SMILES |
| --- | --- |
| 0.5 to 2 | CC1OC(=O)Nc2nc(-c3ccccc3O)cc(C3CCCNC3)c21 (stereo not drawn) [Example 18-3, hydrochloride] |
| < 0.5 | NC(Cc1ccccc1)c1cc(-c2ccccc2O)nc2c1COC(=O)N2 (stereo not drawn) [Example 18-4/18-5, 5-(1-Amino-2-phenyl-ethyl)-7-(2-hydroxy-phenyl)-1,4-dihydro-pyrido[2,3-d][1,3]oxazin-2-one hydrochloride] |
| < 0.5 | O=C1Nc2nc(-c3ccccc3O)cc(C3=CCCNC3)c2CO1 [Example 18-6] |
| 0.5 to 2 | Nc1nc(-c2c(O)cccc2OCc2ccccc2)cc2c1CN1CCCC2C1 (stereo not drawn) [Example 20-1, 2-(6-amino-5,9-diazatricyclo[7.3.1.02,7]trideca-2,4,6-trien-4-yl)-3-(benzyloxy)phenol hydrochloride] |
| < 0.5 | Nc1nc(-c2ccccc2O)cc2c1CN[C@@H]2Cc1ccccc1 [Example 20-2, 2-[(1R)-4-amino-1-benzyl-2,3-dihydro-1H-pyrrolo[3,4-d]pyridin-6-yl]phenol hydrochloride] |
| < 0.5 | Nc1nc(-c2c(O)cccc2OCC2CC2)cc(C2CCCNC2)c1CSc1ccccc1 (stereo not drawn) [Example 21-1, 2-[6-amino-5-[(phenylsulfanyl)methyl]-4-(3-piperidinyl)-2-pyridinyl]-3-(cyclopropylmethoxy)phenol hydrochloride] |
| < 0.5 | Nc1nc(-c2c(O)cccc2OCC2CC2)cc(C2CCNCC2)c1Cn1ccnc1 [Example 21-2, 2-[6-amino-5-(1H-imidazol-1-ylmethyl)-4-(4-piperidinyl)-2-pyridinyl]-3-(cyclopropylmethoxy)phenol hydrochloride] |
| < 0.5 | Nc1nc(-c2c(O)cccc2OCC2CC2)cc(C2CCNCC2)c1COc1ccccc1 [Example 21-3, 2-[6-amino-5-(phenoxymethyl)-4-(4-piperidinyl)-2-pyridinyl]-3-(cyclopropylmethoxy)phenol hydrochloride] |
| < 0.5 | Nc1nc(-c2c(O)cccc2OCC2CC2)cc(C2CCNCC2)c1CON1C(=O)CCC1=O [Example 21-4, 1-{[2-amino-6-[2-(cyclopropylmethoxy)-6-hydroxyphenyl]-4-(4-piperidinyl)-3-pyridinyl]methoxy}-2,5-pyrrolidinedione hydrochloride] |
| < 0.5 | O=C1NCc2c(C3CCCNC3)cc(-c3ccccc3O)nc2N1 (stereo not drawn) [Example 22-1, 7-(2-hydroxyphenyl)-5-(3-piperidinyl)-3,4-dihydropyrido[2,3-d]pyrimidin-2(1H)-one hydrochloride] |
| < 0.5 | O=C1NCc2c(C3CCCNC3)cc(-c3c(O)cccc3OCC3CC3)nc2N1 (stereo not drawn) [Example 22-2, 7-[2-(cyclopropylmethoxy)-6-hydroxyphenyl]-5-(3-piperidinyl)-3,4-dihydro-1H-pyrido[2,3-d]-pyrimidin-2-one hydrochloride] |
| < 0.5 | O=C1NCc2c(C3CCNCC3)cc(-c3c(O)cccc3OCC3CC3)nc2N1 [Example 22-3, 7-[2-(cyclopropylmethoxy)-6-hydroxyphenyl]-5-(4-piperidinyl)-3,4-dihydro-1H-pyrido[2,3-d]pyrimidin-2-one hydrochloride] |
| < 0.5 | O=S1(=O)NCc2c(C3CCCNC3)cc(-c3ccccc3O)nc2N1 (stereo not drawn) [Example 22-5, 2-[2,2-dioxido-5-(3-piperidinyl)-3,4-dihydro-1H-pyrido[2,3-c][1,2,6]thiadiazin-7-yl]phenol hydrochloride] |
| < 0.5 | CC(=O)NCc1c(C2CCCNC2)cc(-c2c(O)cccc2OCC2CC2)nc1N (stereo not drawn) [Example 23-1, N-{[2-amino-6-[2-(cyclopropylmethoxy)-6-hydroxyphenyl]-4-(3-piperidinyl)-3-pyridinyl]methyl}acetamide hydrochoride] |
| < 0.5 | CCOC(=O)NCc1c(C2CCCNC2)cc(-c2c(O)cccc2OCC2CC2)nc1N (stereo not drawn) [Example 23-2, ethyl [2-amino-6-[2-(cyclopropylmethoxy)-6-hydroxyphenyl]-4-(3-piperidinyl)-3-pyridinyl]methylcarbamate hydrochloride] |
| < 0.5 | Nc1nc(-c2c(O)cccc2OCC2CC2)cc(C2CCCNC2)c1CNC(=O)NC1CCCCC1 (stereo not drawn) [Example 23-3, N-{[2-amino-6-[2-(cyclopropylmethoxy)-6-hydroxyphenyl]-4-(3-piperidinyl)-3-pyridinyl]methyl}-N′-cyclohexylurea hydrochloride] |
| < 0.5 | CC(=O)N1Cc2c(C3CCCNC3)cc(-c3c(O)cccc3OCC3CC3)nc2NC1=O (stereo not drawn) [Example 24-1, 3-acetyl-7-[2-(cyclopropylmethoxy)-6-hydroxyphenyl]-5-(3-piperidinyl)-3,4-dihydropyrido[2,3-d]pyrimidin-2(1H)-one hydrochloride] |
| < 0.5 | Oc1cccc(OCC2CC2)c1-c1cc(C2CCCNC2)c2c(n1)NCCC2 (stereo not drawn) [Example 28-01, 3-(cyclopropylmethoxy)-2-[4-(3-piperidinyl)-5,6,7,8-tetrahydro-1,8-naphthyridin-2-yl]phenol] |
| < 0.5 | Nc1cc2c(C3CCCNC3)cc(-c3c(O)cccc3OCC3CC3)nc2[nH]c1=O (stereo not drawn) [Example 29-01, 3-amino-7-[2-(cyclopropylmethoxy)-6-hydroxyphenyl]-5-(3-piperidinyl)-1,8-naphthyridin-2(1H)-one hydrochloride] |
| < 0.5 | O=C(Nc1cc2c(C3CCCNC3)cc(-c3c(O)cccc3OCC3CC3)nc2[nH]c1=O)c1ccccc1 (stereo not drawn) [Example 29-2, N-[7-[2-(cyclopropylmethoxy)-6-hydroxyphenyl]-2-oxo-5-(3-piperidinyl)-1,2-dihydro-1,8-naphthyridin-3-yl]benzamide hydrochloride] |
| < 0.5 | CC(=O)Nc1cc2c(C3CCCNC3)cc(-c3c(O)cccc3OCC3CC3)nc2[nH]c1=O (stereo not drawn) [Example 29-3, N-[7-[2-(cyclopropylmethoxy)-6-hydroxyphenyl]-2-oxo-5-(3-piperidinyl)-1,2-dihydro-1,8-naphthyridin-3-yl]acetamide hydrochloride] |
| < 0.5 | O=C(O)c1cc2c(C3CCCNC3)cc(-c3c(O)cccc3OCC3CC3)nc2[nH]c1=O (stereo not drawn) [Example 30-1, 7-(2-cyclopropylmethoxy-6-hydroxy-phenyl)-2-oxo-5-piperidin-3-yl-1,2-dihydro[1,8]naphthyridine-3-carboxylic acid hydrochloride] |
| < 0.5 | CCCNC(=O)c1cc2c(C3CCCNC3)cc(-c3c(O)cccc3OCC3CC3)nc2[nH]c1=O (stereo not drawn) [Example 31-1, 7-[2-(cyclopropylmethoxy)-6-hydroxyphenyl]-2-oxo-5-(3-pipedinyl)-N-propyl-1,2-dihydro-1,8-naphthyridine-3-carboxamide] |
| < 0.5 | CS(=O)(=O)NC(=O)c1cc2c(C3CCCNC3)cc(-c3c(O)cccc3OCC3CC3)nc2[nH]c1=O (stereo not drawn) [Example 31-2, N-{[7-[2-(cyclopropylmethoxy)-6-hydroxyphenyl]-2-oxo-5-(3-piperidinyl)-1,2-dihydro-1,8-naphthyridin-3-yl]carbonyl}methanesulfonamide hydrochloride] |
| 2 to 10 | Nc1ncnc2nc(-c3c(O)cccc3OCC3CC3)cc(C3CCCNC3)c12 (stereo not drawn) [Example 32-1, 2-[4-amino-5-(3-piperidinyl)pyrido[2,3-d]pyrimidin-7-yl]-3-(cyclopropylmethoxy)phenol hydrochloride] |
| 0.5 to 2 | N#Cc1ccc(-c2ccccc2O)nc1N [Example 33-1, 2-amino-6-(2-hydroxyphenyl)nicotinonitrile] |
| 0.5 to 2 | N#Cc1c(N2CCOCC2)cc(-c2ccccc2O)nc1N [Example 34-1, 2-amino-6-(2-hydroxyphenyl)-4-(4-morpholinyl)nicotinonitrile] |
